Measurements: patent US12630530B2, “FGFR inhibitor compound and use thereof” (HENAN MEDINNO PHARMACEUTICAL TECHNOLOGY CO., LTD., priority 2020, dated 2026)

Legend:
Format in all cases: biochemical
Conditions in all cases: Table 3; same method as Assay I, different experimental operator
[1] = target: T1, FGFR2 V564F (Homo sapiens, UniProt P21802, V564F); test: Assay III: inhibitory activity against FGFR mutants (method of Assay I, different operator)
T1 construct: purchased Signalchem F05-12FG
Experimental: (§1) 1×Kinase reaction buffer was formulated with 1×volume of 5× kinase reaction buffer and 4×volume of water; 5 mM MgCl2; and 1 mM DTT.
(§2) 2.3 Screening of Compounds: • 1. Diluting a compound 4-fold in a dilution plate with DMSO, with a starting compound concentration of 2 mM (4 mM for Nentedanib). • 2. Diluting the compound 40-fold into 1× kinase reaction buffer and shaking it on a shaker for 20 minutes. • 3. […] Adding 1 μl of the compound diluted in buffer to each well, sealing the plate with a sealing membrane and centrifuging the plate at 1000 g for 30 seconds and leaving it at room temperature for 10 minutes. • 6. Formulating 2.5×TK-substrate-biotin and ATP mixture with 1× enzyme reaction buffer and adding 2 μl of K-substrate-biotin/ATP mixture to the reaction plate. • 7. Sealing the plate with a sealing membrane and centrifuging the plate at 1000 g for 30 seconds and allowing it to react at room temperature for 50 minutes. • 8. Formulating 4×Sa-XL 665 (250 nM) with HTRF assay buffer. • 9. Adding 5 μl Sa-XL 665 and 5 μl TK-Antibody-Cryptate to each well, centrifuging it at 1000 g for 30 seconds, and allowing it to react for 1 hour at room temperature. • 10. Reading fluorescence signals at 615 nm (Cryptate) and 665 nm (XL665) with Biotek. 3. Data Analysis
(§3) 3.1 Calculation of the ratio for each well: the ratio was calculated as 665/615 nm.
(§4) 3.3 Calculation of IC50 and plotting of inhibition curves for the compounds.
(§5) The IC50 (half inhibition concentration) of a compound was obtained using the following non-linear fitting equation, wherein data analysis was performed using Graphpad 6.0 software.
(§6) Data were exported from Envision and analyzed manually. The ratios were converted to inhibition rates and IC50 was calculated by Prism GraphPad 6.0 from the inhibition rates. IC50 was calculated again by the ratios to verify accuracy of the results.
(§7) Assay III: Determination of Inhibitory Activity Against FGFR Mutants

[2] = target: T2, FGFR3 V555M (Homo sapiens, UniProt P22607, V555M); test: as above
T2 construct: purchased Signalchem F06-12GG
Experimental: as §1, §2, §3, §4, §5, §6, §7

[3] = target: T3, FGFR1 V561M (Homo sapiens, UniProt P11362, V561M); test: as above
T3 construct: purchased Signalchem F04-13G
Experimental: as §1, §2, §3, §4, §5, §6, §7

[4] = target: T4, VEGFR2 (Homo sapiens, UniProt P35968); test: Assay III: kinase inhibition (method of Assay I, different operator), VEGFR2
T4 construct: purchased Carna 08-191
Experimental: as §1
2.3 Screening of Compounds: • 1. Diluting a compound 4-fold in a dilution plate with DMSO, with a starting compound concentration of 2 mM (4 mM for Nentedanib). • 2. Diluting the compound 40-fold into 1× kinase reaction buffer and shaking it on a shaker for 20 minutes. • 3. Formulating 2×FGFR1 V561M/FGFR2 V564F/FGFR3 K650E/VEGFR2 with 1× of enzyme reaction buffer. • 4. Adding 2 μl FGFR1 V561M/FGFR2 V564F/FGFR3 K650E/VEGFR2 kinase (formulated in step 3) to each well of the reaction plate. • 5. Adding 1 μl of the compound diluted in buffer to each well, sealing the plate with a sealing membrane and centrifuging the plate at 1000 g for 30 seconds and leaving it at room temperature for 10 minutes. • 6. Formulating 2.5×TK-substrate-biotin and ATP mixture with 1× enzyme reaction buffer and adding 2 μl of K-substrate-biotin/ATP mixture to the reaction plate. • 7. Sealing the plate with a sealing membrane and centrifuging the plate at 1000 g for 30 seconds and allowing it to react at room temperature for 50 minutes. • 8. Formulating 4×Sa-XL 665 (250 nM) with HTRF assay buffer. • 9. Adding 5 μl Sa-XL 665 and 5 μl TK-Antibody-Cryptate to each well, centrifuging it at 1000 g for 30 seconds, and allowing it to react for 1 hour at room temperature. • 10. Reading fluorescence signals at 615 nm (Cryptate) and 665 nm (XL665) with Biotek. 3. Data Analysis
as §3, §4
The IC50 (half inhibition concentration) of a compound was obtained using the following non-linear fitting equation, wherein data analysis was performed using Graphpad 6.0 software. Y=Bottom+(Top−Bottom)/(1+10^((Log IC50−X)*Hill Slope)) • X: log value of compound concentration; and Y: inhibition rate (% inh) 3.4 Validation of Results
as §6, §7

T1 sequence (P21802 22-821 V564F): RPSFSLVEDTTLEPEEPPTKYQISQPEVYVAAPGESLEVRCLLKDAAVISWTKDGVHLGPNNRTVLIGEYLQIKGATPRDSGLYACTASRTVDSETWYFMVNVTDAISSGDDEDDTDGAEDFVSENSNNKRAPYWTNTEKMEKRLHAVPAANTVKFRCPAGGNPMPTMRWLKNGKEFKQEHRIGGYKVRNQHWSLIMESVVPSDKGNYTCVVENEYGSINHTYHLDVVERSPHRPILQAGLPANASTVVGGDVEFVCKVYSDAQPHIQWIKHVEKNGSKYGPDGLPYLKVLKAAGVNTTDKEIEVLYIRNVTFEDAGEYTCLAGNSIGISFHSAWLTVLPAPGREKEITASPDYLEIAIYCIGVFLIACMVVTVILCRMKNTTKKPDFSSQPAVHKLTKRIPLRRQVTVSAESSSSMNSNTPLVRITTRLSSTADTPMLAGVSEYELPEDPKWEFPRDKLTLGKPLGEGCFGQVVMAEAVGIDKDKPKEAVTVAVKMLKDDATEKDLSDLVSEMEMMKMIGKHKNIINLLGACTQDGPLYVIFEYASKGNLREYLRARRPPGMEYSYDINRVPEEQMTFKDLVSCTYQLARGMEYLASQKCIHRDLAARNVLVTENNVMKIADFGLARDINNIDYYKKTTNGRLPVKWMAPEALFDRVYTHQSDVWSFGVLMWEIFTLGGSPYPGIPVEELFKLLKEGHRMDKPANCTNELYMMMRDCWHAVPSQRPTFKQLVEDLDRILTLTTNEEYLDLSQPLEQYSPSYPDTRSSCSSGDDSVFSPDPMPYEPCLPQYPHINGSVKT
T4 sequence (P35968 20-1356): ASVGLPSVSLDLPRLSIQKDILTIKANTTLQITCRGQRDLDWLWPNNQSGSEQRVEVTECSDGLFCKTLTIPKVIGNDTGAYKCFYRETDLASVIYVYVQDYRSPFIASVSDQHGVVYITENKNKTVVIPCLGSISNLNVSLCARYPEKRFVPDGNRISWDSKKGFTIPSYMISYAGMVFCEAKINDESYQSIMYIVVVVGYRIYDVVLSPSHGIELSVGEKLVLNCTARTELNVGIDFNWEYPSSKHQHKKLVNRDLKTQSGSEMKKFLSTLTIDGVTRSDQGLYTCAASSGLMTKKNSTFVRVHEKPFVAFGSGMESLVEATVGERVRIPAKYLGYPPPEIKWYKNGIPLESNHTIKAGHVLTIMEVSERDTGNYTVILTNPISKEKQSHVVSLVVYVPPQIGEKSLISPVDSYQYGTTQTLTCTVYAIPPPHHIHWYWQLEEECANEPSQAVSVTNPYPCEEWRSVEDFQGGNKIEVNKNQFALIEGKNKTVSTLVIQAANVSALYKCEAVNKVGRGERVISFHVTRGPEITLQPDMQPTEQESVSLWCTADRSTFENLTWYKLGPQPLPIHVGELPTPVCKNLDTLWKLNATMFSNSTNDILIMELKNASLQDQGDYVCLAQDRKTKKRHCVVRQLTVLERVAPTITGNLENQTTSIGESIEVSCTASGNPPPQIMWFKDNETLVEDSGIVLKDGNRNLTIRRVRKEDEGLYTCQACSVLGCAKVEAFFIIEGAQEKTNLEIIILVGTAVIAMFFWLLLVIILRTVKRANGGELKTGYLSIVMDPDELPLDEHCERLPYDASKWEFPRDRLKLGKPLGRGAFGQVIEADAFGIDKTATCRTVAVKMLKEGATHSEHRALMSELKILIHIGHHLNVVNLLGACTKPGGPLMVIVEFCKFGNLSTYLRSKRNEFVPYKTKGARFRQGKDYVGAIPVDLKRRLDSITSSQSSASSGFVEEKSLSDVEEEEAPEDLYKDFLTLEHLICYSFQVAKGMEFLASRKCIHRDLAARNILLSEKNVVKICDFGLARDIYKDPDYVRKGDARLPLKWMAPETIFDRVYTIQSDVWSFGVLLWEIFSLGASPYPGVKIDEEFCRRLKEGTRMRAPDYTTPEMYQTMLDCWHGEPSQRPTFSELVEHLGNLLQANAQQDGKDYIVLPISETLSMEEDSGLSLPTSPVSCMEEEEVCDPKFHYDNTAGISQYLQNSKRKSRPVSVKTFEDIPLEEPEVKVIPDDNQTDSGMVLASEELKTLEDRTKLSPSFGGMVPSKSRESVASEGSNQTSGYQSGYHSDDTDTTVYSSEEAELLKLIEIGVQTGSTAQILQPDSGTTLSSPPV
T3 sequence (P11362 22-822 V561M): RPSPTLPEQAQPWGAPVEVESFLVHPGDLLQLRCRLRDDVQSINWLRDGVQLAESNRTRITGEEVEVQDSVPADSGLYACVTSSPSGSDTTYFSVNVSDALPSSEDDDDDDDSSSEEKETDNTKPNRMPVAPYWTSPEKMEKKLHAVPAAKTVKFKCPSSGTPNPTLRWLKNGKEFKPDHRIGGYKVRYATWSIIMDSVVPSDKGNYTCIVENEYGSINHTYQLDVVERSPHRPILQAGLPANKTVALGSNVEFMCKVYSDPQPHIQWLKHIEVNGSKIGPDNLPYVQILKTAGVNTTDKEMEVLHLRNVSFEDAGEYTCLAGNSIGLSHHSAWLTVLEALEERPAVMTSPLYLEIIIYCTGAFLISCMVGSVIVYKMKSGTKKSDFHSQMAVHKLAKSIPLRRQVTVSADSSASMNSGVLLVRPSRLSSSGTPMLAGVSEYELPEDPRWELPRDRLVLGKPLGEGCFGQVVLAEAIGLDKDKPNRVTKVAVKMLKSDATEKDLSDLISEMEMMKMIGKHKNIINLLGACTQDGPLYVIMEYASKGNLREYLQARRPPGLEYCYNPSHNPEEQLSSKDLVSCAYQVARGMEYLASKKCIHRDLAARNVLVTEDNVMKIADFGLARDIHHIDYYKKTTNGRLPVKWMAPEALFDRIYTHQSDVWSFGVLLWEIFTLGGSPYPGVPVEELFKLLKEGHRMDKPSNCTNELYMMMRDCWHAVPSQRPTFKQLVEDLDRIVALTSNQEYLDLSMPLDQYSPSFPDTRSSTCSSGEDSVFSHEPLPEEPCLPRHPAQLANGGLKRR
T2 sequence (P22607 23-806 V555M): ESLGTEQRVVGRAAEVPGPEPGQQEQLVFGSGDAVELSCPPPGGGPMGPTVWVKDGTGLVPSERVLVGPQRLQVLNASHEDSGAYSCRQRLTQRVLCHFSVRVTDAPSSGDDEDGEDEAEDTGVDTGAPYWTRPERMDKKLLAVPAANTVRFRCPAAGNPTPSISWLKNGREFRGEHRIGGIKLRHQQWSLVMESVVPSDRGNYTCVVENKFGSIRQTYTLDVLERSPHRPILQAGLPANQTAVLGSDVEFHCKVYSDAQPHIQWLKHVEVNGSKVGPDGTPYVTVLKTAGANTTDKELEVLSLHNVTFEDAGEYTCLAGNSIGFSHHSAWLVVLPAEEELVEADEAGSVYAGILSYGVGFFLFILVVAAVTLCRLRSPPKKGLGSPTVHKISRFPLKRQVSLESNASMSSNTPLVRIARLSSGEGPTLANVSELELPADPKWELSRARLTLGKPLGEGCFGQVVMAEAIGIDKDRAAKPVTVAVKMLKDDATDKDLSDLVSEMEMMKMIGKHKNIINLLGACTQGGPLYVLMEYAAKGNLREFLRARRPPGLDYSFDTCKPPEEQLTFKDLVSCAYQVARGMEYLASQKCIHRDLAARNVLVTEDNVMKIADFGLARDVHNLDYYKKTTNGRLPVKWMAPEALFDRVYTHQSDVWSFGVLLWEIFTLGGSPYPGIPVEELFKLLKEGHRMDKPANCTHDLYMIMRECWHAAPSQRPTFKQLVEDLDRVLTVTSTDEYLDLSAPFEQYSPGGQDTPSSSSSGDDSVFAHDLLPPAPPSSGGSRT

| SMILES | IC50 [1] [nM] | IC50 [2] [nM] | IC50 [3] [nM] | IC50 [4] [nM] |
| --- | --- | --- | --- | --- |
| CC(Oc1ccc2[nH]nc(C(=O)Nc3cnn(CC(=O)N4CCCC4)c3)c2c1)c1c(Cl)cncc1Cl (stereo not shown) [Compound 23, 5-(1-(3,5-dichloropyridin-4-yl)ethoxy)-N-(1-(2-oxo-2-(pyrrolidin-1-yl)ethyl)-1H-pyrazol-4-yl)-1H-indazole-3-carboxamide] | 0.47 | 0.92 | 2.2 | 114 |
| CC(Oc1ccc2[nH]nc(C(=O)Nc3cnn(CC(=O)N(C)C)c3)c2c1)c1c(Cl)cncc1Cl (stereo not shown) [Compound 24, 5-(1-(3,5-dichloropyridin-4-yl)ethoxy)-N-(1-(2-(dimethylamino)-2-oxoethyl)-1H-pyrazol-4-yl)-1H-indazole-3-carboxamide] | 0.43 | 1.3 | 3.3 | 201 |
| CC(Oc1ccc2[nH]nc(C(=O)Nc3cnn(CCN4CCCC4)c3)c2c1)c1c(Cl)cncc1Cl (stereo not shown) [Compound 25, 5-(1-(3,5-dichloropyridin-4-yl)ethoxy)-N-(1-(2-(pyrrolidin-1-yl)ethyl)-1H-pyrazol-4-yl)-1H-indazole-3-carboxamide] | 0.26 | 0.21 | 3.6 | 145 |
| CC(Oc1ccc2[nH]nc(C(=O)Nc3cnn(C(C)C)c3)c2c1)c1c(Cl)cncc1Cl (stereo not shown) [Compound 26, 5-(1-(3,5-dichloropyridin-4-yl)ethoxy)-N-(1-isopropyl-1H-pyrazol-4-yl)-1H-indazole-3-carboxainide] | 1.8 | 2.9 | 11.4 | 255 |
| CC(Oc1ccc2[nH]nc(C(=O)Nc3cnn(C4CCC4)c3)c2c1)c1c(Cl)cncc1Cl (stereo not shown) [Compound 27, N-(1-cyclobutyl-1H-pyrazol-4-yl)-5-(1-(3,5-dichloropyridin-4-yl)ethoxy)-1H-indazole-3-carboxamide] | 2.1 | 7.3 | 20 | 581 |
| CC(Oc1ccc2[nH]nc(C(=O)Nc3cnn(CC(F)(F)F)c3)c2c1)c1c(Cl)cncc1Cl (stereo not shown) [Compound 28, 5-(1-(3,5-dichloropyridin-4-yl)ethoxy)-N-(1-(2,2,2-trifluoroethyl)-1H-pyrazol-4-yl)-1H-indazole-3-carboxamide] | 2.6 | 3 | 11 | 68 |
| CC(Oc1ccc2[nH]nc(C(=O)Nc3cnn(CCCO)c3)c2c1)c1c(Cl)cncc1Cl (stereo not shown) [Compound 29, 5-(1-(3,5-dichloropyridin-4-yl)ethoxy)-N-(1-(3-hydroxypropyl)-1H-pyrazol-4-yl)-1H-indazole-3-carboxamide] | 0.93 | 0.25 | 2.3 | 144 |
| CC(Oc1ccc2[nH]nc(C(=O)Nc3ccc(CN4CCOCC4)cc3)c2c1)c1c(Cl)cncc1Cl (stereo not shown) [Compound 30, 5-(1-(3,5-dichloropyridin-4-yl)ethoxy)-N-(4-(morpholinomethyl)phenyl)-1H-indazole-3-carboxamide] | 3.7 | 7.6 | 36 | 729 |
| CCN1CC(n2cc(NC(=O)c3n[nH]c4ccc(O[C@H](C)c5c(Cl)cncc5Cl)cc34)cn2)C1 [Compound 31, (R)-5-(1-(3,5-dichloropyridin-4-yl)ethoxy)-N-(1-(1-ethyl-azetidin-3-yl)-1H-pyrazol-4-yl)-1H-indazole-3-carboxamide] | 0.11 | 0.07 | 0.93 | 54 |
| C[C@H](O)Cn1cc(NC(=O)c2n[nH]c3ccc(O[C@H](C)c4c(Cl)cncc4Cl)cc23)cn1 [Compound 32, 5-((R)-1-(3,5-dichloropyridin-4-yl)ethoxy)-N-(1-((S)-2-hydroxypropyl)-1H-pyrazol-4-yl)-1H-indazole-3-carboxamide] | 0.37 | 0.26 | 0.3 | 86 |
| C[C@@H](O)Cn1cc(NC(=O)c2n[nH]c3ccc(O[C@H](C)c4c(Cl)cncc4Cl)cc23)cn1 [Compound 33, 5-((R)-1-(3,5-dichloropyridin-4-yl)ethoxy)-N-(1-((R)-2-hydroxypropyl)-1H-pyrazol-4-yl)-1H-indazole-3-carboxamide] | 0.33 | 0.39 | 1 | 99 |
| CCn1cc(NC(=O)c2n[nH]c3ccc(O[C@H](C)c4c(Cl)cncc4Cl)cc23)cn1 [Compound 34, (R)-5-(1-(3,5-dichloropyridin-4-yl)ethoxy)-N-(1-ethyl-1H-pyrazol-4-yl)-1H-indazole-3-carboxamide] | 0.06 | 0.75 | 0.24 | 61 |
| C[C@@H](Oc1ccc2[nH]nc(C(=O)Nc3cnn(C4CC(O)C4)c3)c2c1)c1c(Cl)cncc1Cl (stereo partly drawn) [Compound 35, (R)-5-(1-(3,5-dichloropyridin-4-yl)ethoxy)-N-(1-(3-hydroxycyclobutyl)-1H-pyrazol-4-yl)-1H-indazole-3-carboxamide] | 0.16 | 0.27 | 0.29 | 89 |
| C[C@@H](Oc1ccc2[nH]nc(C(=O)Nc3cnn(CCN(C)C)c3)c2c1)c1c(Cl)cncc1Cl [Compound 36, (R)-5-(1-(3,5-dichloropyridin-4-yl)ethoxy)-N-(1-(2-(dimethylamino)ethyl)-1H-pyrazol-4-yl)-1H-indazole-3-carboxamide] | 0.07 | 0.11 | 0.88 | 41 |
| C[C@@H](Oc1ccc2[nH]nc(C(=O)Nc3cnn(CCN4CCOCC4)c3)c2c1)c1c(Cl)cncc1Cl [Compound 37, (R)-5-(1-(3,5-dichloropyridin-4-yl)ethoxy)-N-(1-(2-morpholinoethyl)-1H-pyrazol-4-yl)-1H-indazole-3-carboxamide] | 0.44 | 0.16 | 1.6 | 79 |
| C[C@@H](Oc1ccc2[nH]nc(C(=O)Nc3cnn(CC(C)(C)O)c3)c2c1)c1c(Cl)cncc1Cl [Compound 38, (R)-5-(1-(3,5-dichloropyridin-4-yl)ethoxy)-N-(1-(2-hydroxy-2-methylpropyl)-1H-pyrazol-4-yl)-1H-indazole-3-carboxamide] | 0.4 | 0.59 | 3.7 | 61 |
| CCN1CC(Cn2cc(NC(=O)c3n[nH]c4ccc(O[C@H](C)c5c(Cl)cncc5Cl)cc34)cn2)C1 [Compound 39, (R)-5-(1-(3,5-dichloropyridin-4-yl)ethoxy)-N-(1-((1-ethyl-azetidin-3-yl)methyl)-1H-pyrazol-4-yl)-1H-indazole-3-carboxamide] | 0.05 | 0.05 | 0.35 | 30 |
| CCN1CCC(Cn2cc(NC(=O)c3n[nH]c4ccc(O[C@H](C)c5c(Cl)cncc5Cl)cc34)cn2)CC1 [Compound 40, (R)-5-(1-(3,5-dichloropyridin-4-yl)ethoxy)-N-(1-((1-ethylpiperidin-4-yl)methyl)-1H-pyrazol-4-yl)-1H-indazole-3-carboxamide] | 1.3 | 0.02 | 0.42 | 33 |
| CCN1CCN(c2ccc(Nc3cc(N(C)C(=O)Nc4c(Cl)c(OC)cc(OC)c4Cl)ncn3)cc2)CC1 [Infigratinib, reference compound] | – | – | – | 73 |
